In article PMC9469100, “Turning Nonselective Inhibitors of Type I Protein Arginine Methyltransferases into Potent and Selective Inhibitors of Protein Arginine Methyltransferase 4 through a Deconstruction–Reconstruction and Fragment-Growing Approach” (Journal of Medicinal Chemistry, 2022):
Read-outs that look alike come from different tables or passages of the source.

Tests used:
[1] = biological target: PRMT3 (Homo sapiens, UniProt O60678); assay: Radioisotope-based filter-binding (HotSpot) assay, PRMT3; settings: radioisotope-based filter assay
Procedure: (§1) Then, ^3H-SAM (final concentration 1 μM) was delivered into the reaction mixture to initiate the reaction. After incubation for 60 min at 30 °C, the reaction mixture was delivered to filter paper for detection (as assessed by scintillation). Data were analyzed using Excel and GraphPad Prism 6.0 software (GraphPad Software Inc., San Diego, CA) for IC50 curve fits using sigmoidal dose vs response-variable slope (four parameters) equations.

[2] = biological target: T1, PRMT4 (Homo sapiens, UniProt Q86X55); assay: Radioisotope-based filter-binding (HotSpot) assay, PRMT4; settings: for IC50: radioisotope-based filter assay; for LE: ligand efficiency for PRMT4 calculated from IC50 as a surrogate for KD; for selectivity index for PRMT4 vs other PRMTs: PRMT1: ratio IC50 PRMT1 / IC50 PRMT4, rounded to nearest integer; for selectivity index for PRMT4 vs other PRMTs: PRMT3: ratio IC50 PRMT3 / IC50 PRMT4; for selectivity index for PRMT4 vs other PRMTs: PRMT5: ratio IC50 PRMT5 / IC50 PRMT4; for selectivity index for PRMT4 vs other PRMTs: PRMT6: ratio IC50 PRMT6 / IC50 PRMT4; for selectivity index for PRMT4 vs other PRMTs: PRMT7: ratio IC50 PRMT7 / IC50 PRMT4; for selectivity index for PRMT4 vs other PRMTs: PRMT8: ratio IC50 PRMT8 / IC50 PRMT4; for SI PRMT1 (Figure 5 heatmap): selectivity index for PRMT4 over PRMT1; for SI PRMT3 (Figure 5 heatmap): selectivity index for PRMT4 over PRMT3; for SI PRMT5 (Figure 5 heatmap): selectivity index for PRMT4 over PRMT5; for SI PRMT6 (Figure 5 heatmap): selectivity index for PRMT4 over PRMT6; for SI PRMT7 (Figure 5 heatmap): selectivity index for PRMT4 over PRMT7; for SI PRMT8 (Figure 5 heatmap): selectivity index for PRMT4 over PRMT8
T1 sequence (Q86X55 2-608): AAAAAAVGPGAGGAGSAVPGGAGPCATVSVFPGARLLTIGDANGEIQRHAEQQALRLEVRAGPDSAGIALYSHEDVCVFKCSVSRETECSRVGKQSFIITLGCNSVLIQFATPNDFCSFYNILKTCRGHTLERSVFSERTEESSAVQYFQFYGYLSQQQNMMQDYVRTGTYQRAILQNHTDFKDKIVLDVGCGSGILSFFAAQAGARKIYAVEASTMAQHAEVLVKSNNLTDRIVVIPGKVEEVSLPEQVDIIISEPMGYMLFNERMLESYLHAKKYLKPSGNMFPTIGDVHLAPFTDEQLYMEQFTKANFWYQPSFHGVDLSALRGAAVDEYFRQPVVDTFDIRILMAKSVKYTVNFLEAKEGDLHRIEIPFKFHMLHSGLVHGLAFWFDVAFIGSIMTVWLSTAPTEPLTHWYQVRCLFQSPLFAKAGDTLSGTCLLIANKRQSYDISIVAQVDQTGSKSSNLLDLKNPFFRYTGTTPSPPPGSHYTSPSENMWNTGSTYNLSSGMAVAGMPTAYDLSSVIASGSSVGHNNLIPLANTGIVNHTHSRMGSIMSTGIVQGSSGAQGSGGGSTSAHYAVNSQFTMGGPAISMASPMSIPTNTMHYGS
Procedure: as §1

[3] = biological target: PRMT5/MEP50 complex (Homo sapiens, UniProt O14744); assay: Radioisotope-based filter-binding (HotSpot) assay, PRMT5
Procedure: as §1

[4] = biological target: T2, PRMT7 (Homo sapiens, UniProt Q9NVM4); assay: Radioisotope-based filter-binding (HotSpot) assay, PRMT7; settings: read-out: IC50 (μM) PRMT7; radioisotope-based filter assay; 5 μM GST-GAR; 1 μM 3H-SAM
T2 sequence (Q9NVM4 2-692): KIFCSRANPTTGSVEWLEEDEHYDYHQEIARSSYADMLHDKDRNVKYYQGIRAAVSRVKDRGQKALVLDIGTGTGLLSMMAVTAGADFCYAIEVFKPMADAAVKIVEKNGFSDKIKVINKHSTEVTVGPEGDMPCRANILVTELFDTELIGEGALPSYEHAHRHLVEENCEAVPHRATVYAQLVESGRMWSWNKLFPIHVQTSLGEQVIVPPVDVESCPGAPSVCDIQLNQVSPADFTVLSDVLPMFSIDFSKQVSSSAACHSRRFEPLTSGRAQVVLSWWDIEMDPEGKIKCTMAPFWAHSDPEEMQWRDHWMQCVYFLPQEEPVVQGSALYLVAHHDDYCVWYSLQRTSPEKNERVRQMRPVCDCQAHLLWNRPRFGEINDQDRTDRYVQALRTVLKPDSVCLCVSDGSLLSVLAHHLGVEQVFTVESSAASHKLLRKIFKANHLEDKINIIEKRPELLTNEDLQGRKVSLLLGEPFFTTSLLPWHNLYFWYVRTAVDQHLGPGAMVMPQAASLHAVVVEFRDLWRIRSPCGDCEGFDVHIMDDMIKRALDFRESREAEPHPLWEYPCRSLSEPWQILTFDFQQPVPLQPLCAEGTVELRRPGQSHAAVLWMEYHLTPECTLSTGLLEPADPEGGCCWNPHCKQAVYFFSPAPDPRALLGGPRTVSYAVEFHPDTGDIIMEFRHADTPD
Procedure: as §1

[5] = read-out: IC50 (μM) PRMT3, 5 μM histone H4, 1 μM 3H-SAM
[6] = read-out: IC50 PRMT3 (Figure 5 heatmap)
[7] = read-out: IC50 (μM) PRMT4, 5 μM histone H3, 1 μM 3H-SAM
[8] = read-out: IC50 (μM) PRMT5, radioisotope-based filter assay, 5 μM histone H2A, 1 μM 3H-SAM
[9] = read-out: IC50 PRMT5 (Figure 5 heatmap), radioisotope-based filter assay
[10] = read-out: IC50 PRMT4 (Figure 5 heatmap)
[11] = on increasing the linker between 4-hydroxy-2-naphthoate and guanidine (values equal the ratio to the IC50 of 12c)

Sequence of PRMT3 (O60678 2-531): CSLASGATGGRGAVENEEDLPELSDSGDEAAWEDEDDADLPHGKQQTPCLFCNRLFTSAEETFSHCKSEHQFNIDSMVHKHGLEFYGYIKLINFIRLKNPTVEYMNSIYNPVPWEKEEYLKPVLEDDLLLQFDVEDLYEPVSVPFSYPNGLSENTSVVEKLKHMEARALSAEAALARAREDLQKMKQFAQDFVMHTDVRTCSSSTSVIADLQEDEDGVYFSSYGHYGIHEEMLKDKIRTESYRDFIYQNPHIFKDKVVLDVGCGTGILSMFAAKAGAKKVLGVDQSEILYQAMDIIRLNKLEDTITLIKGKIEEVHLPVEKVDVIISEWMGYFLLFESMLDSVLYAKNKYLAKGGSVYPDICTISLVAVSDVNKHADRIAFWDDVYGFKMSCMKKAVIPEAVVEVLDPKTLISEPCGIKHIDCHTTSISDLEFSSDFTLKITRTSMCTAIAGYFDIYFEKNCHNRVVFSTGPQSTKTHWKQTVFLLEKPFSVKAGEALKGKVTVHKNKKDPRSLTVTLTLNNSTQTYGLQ
Sequence of PRMT5/MEP50 complex (O14744 2-637): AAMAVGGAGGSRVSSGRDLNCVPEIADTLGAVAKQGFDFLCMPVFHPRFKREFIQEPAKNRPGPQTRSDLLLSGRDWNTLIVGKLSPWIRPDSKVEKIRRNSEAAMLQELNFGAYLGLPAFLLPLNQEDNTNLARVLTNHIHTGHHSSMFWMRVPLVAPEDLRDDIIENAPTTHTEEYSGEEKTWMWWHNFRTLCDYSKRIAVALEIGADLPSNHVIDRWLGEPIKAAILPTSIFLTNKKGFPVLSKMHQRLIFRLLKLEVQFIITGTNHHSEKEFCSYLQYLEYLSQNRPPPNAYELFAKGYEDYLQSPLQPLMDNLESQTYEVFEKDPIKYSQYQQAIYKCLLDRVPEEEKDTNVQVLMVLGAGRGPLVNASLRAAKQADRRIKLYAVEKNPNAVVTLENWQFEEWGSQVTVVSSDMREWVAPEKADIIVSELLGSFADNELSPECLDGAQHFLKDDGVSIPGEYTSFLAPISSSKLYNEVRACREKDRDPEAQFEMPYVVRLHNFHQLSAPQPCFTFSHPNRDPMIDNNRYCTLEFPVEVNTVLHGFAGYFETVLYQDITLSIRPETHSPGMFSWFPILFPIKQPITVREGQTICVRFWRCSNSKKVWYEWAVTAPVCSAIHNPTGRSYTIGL
Sequence of PRMT5/MEP50 complex (Q9BQA1 2-342 partner limits assumed): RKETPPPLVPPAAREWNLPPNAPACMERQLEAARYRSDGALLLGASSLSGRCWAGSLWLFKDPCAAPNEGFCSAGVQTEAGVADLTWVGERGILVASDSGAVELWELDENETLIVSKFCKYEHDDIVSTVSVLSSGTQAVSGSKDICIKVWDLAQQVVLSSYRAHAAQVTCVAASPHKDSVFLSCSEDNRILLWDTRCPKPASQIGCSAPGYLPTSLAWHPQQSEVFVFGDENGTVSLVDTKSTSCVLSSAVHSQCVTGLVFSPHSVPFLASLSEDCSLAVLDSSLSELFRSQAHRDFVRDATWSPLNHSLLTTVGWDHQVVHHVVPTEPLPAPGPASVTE

SMILES | IC50 [1, 5] | IC50 [1, 6] | IC50 [2, 7] | IC50 [3, 8] | IC50 [4] | LE [2] | selectivity index for PRMT4 vs other PRMTs: PRMT1 [2] | selectivity index for PRMT4 vs other PRMTs: PRMT3 [2] | selectivity index for PRMT4 vs other PRMTs: PRMT5 [2] | selectivity index for PRMT4 vs other PRMTs: PRMT6 [2] | selectivity index for PRMT4 vs other PRMTs: PRMT7 [2] | selectivity index for PRMT4 vs other PRMTs: PRMT8 [2] | IC50 [2, 10] | SI PRMT1 (Figure 5 heatmap) [2] | SI PRMT3 (Figure 5 heatmap) [2] | SI PRMT5 (Figure 5 heatmap) [2] | SI PRMT6 (Figure 5 heatmap) [2] | SI PRMT7 (Figure 5 heatmap) [2] | SI PRMT8 (Figure 5 heatmap) [2] | IC50 [3, 9] | further results
COC(=O)c1cc(O)c2cc(NC(=O)NCCCCNC(=N)NC/C=C/[C@H]3O[C@@H](n4cnc5c(N)ncnc54)[C@H](O)[C@@H]3O)ccc2c1 [12h, Methyl 6-(3-(4-(3-((E)-3-((2R,3S,4R,5R)-5-(6-Amino-9H-purin-9-yl)-3,4-dihydroxytetrahydrofuran-2-yl)allyl)guanidino)butyl)ureido)-4-hydroxy-2-naphthoate] | 4.05 µM | 4.04 µM | 0.0032 µM | 1.46 µM | 1.68 µM | – | – | – | – | – | – | – | – | – | – | – | – | – | – | 1.46 µM | IC50 ([2]; IC50 PRMT4 (Figure 5 heatmap)): 0.003 µM; gain in potency over its shorter counterpart 12b ([2]; PRMT4): 668 fold
COC(=O)c1cc(O)c2cc(NC(=O)NCCCCCCCNC(=N)NC[C@H]3O[C@@H](n4cnc5c(N)ncnc54)[C@H](O)[C@@H]3O)ccc2c1 [12e, Methyl 6-(3-(7-(3-(((2R,3S,4R,5R)-5-(6-Amino-9H-purin-9-yl)-3,4-dihydroxytetrahydrofuran-2-yl)methyl)guanidino)heptyl)ureido)-4-hydroxy-2-naphthoate] | 12.4 µM | 12.4 µM | 0.176 µM | 3.38 µM | 0.631 µM | 0.20 | 15 | 70 | 19 | 202 | 4 | 33 | – | 15 fold | 70 fold | 19 fold | 202 fold | 4 fold | 33 fold | 3.38 µM | gain in the inhibitory activity against PRMT4 [2, 11]: 2.4 fold; gain in the inhibitory activity against PRMT5 [3, 11]: 15.2 fold
COC(=O)c1cc(O)c2cc(NC(=O)NCCCCCNC(=N)NC[C@H]3O[C@@H](n4cnc5c(N)ncnc54)[C@H](O)[C@@H]3O)ccc2c1 [12c, Methyl 6-(3-(5-(3-(((2R,3S,4R,5R)-5-(6-Amino-9H-purin-9-yl)-3,4-dihydroxytetrahydrofuran-2-yl)methyl)guanidino)pentyl)ureido)-4-hydroxy-2-naphthoate] | 21.3 µM | – | 0.42 µM | 51.4 µM | 0.22 µM | 0.19 | 20 | 51 | 122 | >238 | 0.52 | 14 | 0.421 µM | 20 fold | 51 fold | 122 fold | > 238 fold | 0.52 fold | 14 fold | – | IC50 [3]: 5.14 µM

Second part, led by results:

IC50 [1, 5] | IC50 [1, 6] | IC50 [2, 7] | IC50 [3, 8] | IC50 [4] | LE [2] | selectivity index for PRMT4 vs other PRMTs: PRMT1 [2] | selectivity index for PRMT4 vs other PRMTs: PRMT3 [2] | selectivity index for PRMT4 vs other PRMTs: PRMT5 [2] | selectivity index for PRMT4 vs other PRMTs: PRMT6 [2] | selectivity index for PRMT4 vs other PRMTs: PRMT7 [2] | selectivity index for PRMT4 vs other PRMTs: PRMT8 [2] | IC50 [2, 10] | SI PRMT1 (Figure 5 heatmap) [2] | SI PRMT3 (Figure 5 heatmap) [2] | SI PRMT5 (Figure 5 heatmap) [2] | SI PRMT6 (Figure 5 heatmap) [2] | SI PRMT7 (Figure 5 heatmap) [2] | SI PRMT8 (Figure 5 heatmap) [2] | SMILES | IC50 [3, 9] | further results
13.3 µM | 13.2 µM | 0.0084 µM | 0.778 µM | 4.68 µM | 0.24 | 214 | 1583 | 93 | 517 | 557 | 168 | 0.008 µM | 214 fold | 1,583 fold | 93 fold | 517 fold | 557 fold | 168 fold | COC(=O)c1cc(O)c2cc(NC(=O)NCCCCNC(=N)NCCC[C@H]3O[C@@H](n4cnc5c(N)ncnc54)[C@H](O)[C@@H]3O)ccc2c1 [12g, Methyl 6-(3-(4-(3-(3-((2R,3S,4R,5R)-5-(6-Amino-9H-purin-9-yl)-3,4-dihydroxytetrahydrofuran-2-yl)propyl)guanidino)butyl)ureido)-4-hydroxy-2-naphthoate] | – | –
10.5 µM | 10.5 µM | 0.0097 µM | 0.115 µM | 0.226 µM | 0.24 | 501 | 1082 | 12 | 2340 | 23 | 619 | 0.01 µM | 501 fold | 1,082 fold | – | 2,340 fold | 23 fold | 619 fold | COC(=O)c1cc(O)c2cc(NC(=O)NCCCCNC(=N)NCC[C@H]3O[C@@H](n4cnc5c(N)ncnc54)[C@H](O)[C@@H]3O)ccc2c1 [12f, Methyl 6-(3-(4-(3-(2-((2R,3S,4R,5R)-5-(6-Amino-9H-purin-9-yl)-3,4-dihydroxytetrahydrofuran-2-yl)ethyl)guanidino)butyl)ureido)-4-hydroxy-2-naphthoate] | – | –
